# The NIST ThermoML archive (doi:10.1016/j.jct.2016.10.023)
# Numbers after ± are expanded uncertainties.
# Assay: xn = mol fraction of the nth substance listed
# Conditions: Constant-volume piezometry
smiles,measurement,setting,value
CCCCC [pentane] + CCCO,mass density,"513.15 K, 5373 kPa, Fluid (supercritical or subcritical phases), x1 = 0.5",200.49 ± 1.1 kg/m3
same,mass density,"513.15 K, 5432 kPa, Fluid (supercritical or subcritical phases), x1 = 0.5",210.33 ± 1.1 kg/m3
same,mass density,"513.15 K, 5454 kPa, Fluid (supercritical or subcritical phases), x1 = 0.9",202.47 ± 1 kg/m3
same,mass density,"513.15 K, 5473 kPa, Fluid (supercritical or subcritical phases), x1 = 0.8",193.25 ± 0.99 kg/m3
same,mass density,"513.15 K, 5506 kPa, Fluid (supercritical or subcritical phases), x1 = 0.5",224.16 ± 1.1 kg/m3
same,mass density,"513.15 K, 5598 kPa, Fluid (supercritical or subcritical phases), x1 = 0.5",241.62 ± 1.2 kg/m3
same,mass density,"513.15 K, 5618 kPa, Fluid (supercritical or subcritical phases), x1 = 0.5",250.82 ± 1.3 kg/m3
same,mass density,"513.15 K, 5669 kPa, Fluid (supercritical or subcritical phases), x1 = 0.9",220.79 ± 1.1 kg/m3
same,mass density,"513.15 K, 5677 kPa, Fluid (supercritical or subcritical phases), x1 = 0.5",259.87 ± 1.3 kg/m3
same,mass density,"513.15 K, 5710 kPa, Fluid (supercritical or subcritical phases), x1 = 0.8",213.96 ± 1.1 kg/m3
same,mass density,"513.15 K, 5746 kPa, Fluid (supercritical or subcritical phases), x1 = 0.5",270.69 ± 1.4 kg/m3
same,mass density,"513.15 K, 5776 kPa, Fluid (supercritical or subcritical phases), x1 = 0.8",219.73 ± 1.1 kg/m3
same,mass density,"513.15 K, 5792 kPa, Liquid, x1 = 0.2",418.94 ± 0.86 kg/m3
same,mass density,"513.15 K, 5837 kPa, Fluid (supercritical or subcritical phases), x1 = 0.9",233.18 ± 1.2 kg/m3
same,mass density,"513.15 K, 5858 kPa, Fluid (supercritical or subcritical phases), x1 = 0.5",282.52 ± 1.4 kg/m3
same,mass density,"513.15 K, 5880 kPa, Fluid (supercritical or subcritical phases), x1 = 0.9",236.64 ± 1.2 kg/m3
same,mass density,"513.15 K, 5929 kPa, Fluid (supercritical or subcritical phases), x1 = 0.9",241.05 ± 1.3 kg/m3
same,mass density,"513.15 K, 5974 kPa, Fluid (supercritical or subcritical phases), x1 = 0.9",244.36 ± 1.3 kg/m3
same,mass density,"513.15 K, 5983 kPa, Fluid (supercritical or subcritical phases), x1 = 0.8",234.82 ± 1.2 kg/m3
same,mass density,"513.15 K, 6090 kPa, Fluid (supercritical or subcritical phases), x1 = 0.5",298.82 ± 1.5 kg/m3
same,mass density,"513.15 K, 6119 kPa, Fluid (supercritical or subcritical phases), x1 = 0.8",245.46 ± 1.2 kg/m3
same,mass density,"513.15 K, 6286 kPa, Fluid (supercritical or subcritical phases), x1 = 0.8",258.7 ± 1.3 kg/m3
same,mass density,"513.15 K, 6470 kPa, Fluid (supercritical or subcritical phases), x1 = 0.5",320.16 ± 1.6 kg/m3
same,mass density,"513.15 K, 6531 kPa, Fluid (supercritical or subcritical phases), x1 = 0.8",272.67 ± 1.4 kg/m3
same,mass density,"513.15 K, 6531 kPa, Fluid (supercritical or subcritical phases), x1 = 0.9",282.15 ± 1.4 kg/m3
same,mass density,"513.15 K, 6559 kPa, Fluid (supercritical or subcritical phases), x1 = 0.5",325.44 ± 1.6 kg/m3
same,mass density,"513.15 K, 6787 kPa, Fluid (supercritical or subcritical phases), x1 = 0.8",288.53 ± 1.5 kg/m3
same,mass density,"513.15 K, 6884 kPa, Fluid (supercritical or subcritical phases), x1 = 0.9",301.84 ± 1.5 kg/m3
same,mass density,"513.15 K, 6962 kPa, Fluid (supercritical or subcritical phases), x1 = 0.5",344.73 ± 1.7 kg/m3
same,mass density,"513.15 K, 7033 kPa, Fluid (supercritical or subcritical phases), x1 = 0.8",299.35 ± 1.5 kg/m3
same,mass density,"513.15 K, 7191 kPa, Fluid (supercritical or subcritical phases), x1 = 0.9",312.49 ± 1.6 kg/m3
same,mass density,"513.15 K, 7508 kPa, Fluid (supercritical or subcritical phases), x1 = 0.8",315.53 ± 1.6 kg/m3
same,mass density,"513.15 K, 7785 kPa, Fluid (supercritical or subcritical phases), x1 = 0.5",373.08 ± 1.9 kg/m3
same,mass density,"513.15 K, 7943 kPa, Fluid (supercritical or subcritical phases), x1 = 0.9",334.21 ± 1.7 kg/m3
same,mass density,"513.15 K, 8099 kPa, Fluid (supercritical or subcritical phases), x1 = 0.8",334.03 ± 1.7 kg/m3
same,mass density,"513.15 K, 8570 kPa, Fluid (supercritical or subcritical phases), x1 = 0.8",345.56 ± 1.7 kg/m3
same,mass density,"513.15 K, 8766 kPa, Liquid, x1 = 0.2",470.65 ± 0.96 kg/m3
same,mass density,"513.15 K, 8986 kPa, Fluid (supercritical or subcritical phases), x1 = 0.5",398.35 ± 2 kg/m3
same,mass density,"513.15 K, 9031 kPa, Fluid (supercritical or subcritical phases), x1 = 0.9",354.32 ± 1.8 kg/m3
same,mass density,"513.15 K, 9551 kPa, Fluid (supercritical or subcritical phases), x1 = 0.8",362.13 ± 1.8 kg/m3
same,mass density,"513.15 K, 10333 kPa, Fluid (supercritical or subcritical phases), x1 = 0.5",417.46 ± 2.1 kg/m3
same,mass density,"513.15 K, 12509 kPa, Fluid (supercritical or subcritical phases), x1 = 0.5",441.21 ± 2.2 kg/m3
same,mass density,"513.15 K, 13550 kPa, Fluid (supercritical or subcritical phases), x1 = 0.2",509.9 ± 2.6 kg/m3
same,mass density,"513.15 K, 13550 kPa, Liquid, x1 = 0.2",509.9 ± 1 kg/m3
same,mass density,"513.15 K, 13634 kPa, Fluid (supercritical or subcritical phases), x1 = 0.5",451.54 ± 2.3 kg/m3
same,mass density,"513.15 K, 13786 kPa, Fluid (supercritical or subcritical phases), x1 = 0.9",407.53 ± 2 kg/m3
same,mass density,"513.15 K, 14551 kPa, Fluid (supercritical or subcritical phases), x1 = 0.8",418.46 ± 2.1 kg/m3
same,mass density,"513.15 K, 16655 kPa, Fluid (supercritical or subcritical phases), x1 = 0.5",468.45 ± 2.4 kg/m3
same,mass density,"513.15 K, 22117 kPa, Liquid, x1 = 0.2",547.38 ± 1.1 kg/m3
same,mass density,"513.15 K, 24001 kPa, Fluid (supercritical or subcritical phases), x1 = 0.8",467 ± 2.4 kg/m3
same,mass density,"513.15 K, 30101 kPa, Fluid (supercritical or subcritical phases), x1 = 0.5",519.68 ± 2.6 kg/m3
same,mass density,"513.15 K, 33469 kPa, Fluid (supercritical or subcritical phases), x1 = 0.8",496.43 ± 2.5 kg/m3
same,mass density,"513.15 K, 35193 kPa, Liquid, x1 = 0.2",581.71 ± 1.2 kg/m3
same,mass density,"513.15 K, 42801 kPa, Liquid, x1 = 0.2",595.3 ± 1.2 kg/m3
same,mass density,"513.45 K, Liquid, x1 = 0.2",344.22 ± 2.1 kg/m3
same,mass density,"513.65 K, Liquid, x1 = 0.2",341.43 ± 2 kg/m3
same,mass density,"514.15 K, 4473 kPa, Gas, x1 = 0.2",150.41 ± 0.53 kg/m3
same,mass density,"514.15 K, 4778 kPa, Liquid, x1 = 0.2",341.42 ± 0.76 kg/m3
same,mass density,"514.15 K, 4795 kPa, Liquid, x1 = 0.2",350.74 ± 0.76 kg/m3
same,mass density,"514.95 K, Liquid, x1 = 0.2",318.91 ± 1.9 kg/m3
same,mass density,"515.15 K, 4522 kPa, Gas, x1 = 0.2",150.4 ± 0.49 kg/m3
same,mass density,"515.15 K, 4645 kPa, Fluid (supercritical or subcritical phases), x1 = 0.2",175.68 ± 2.2 kg/m3
same,mass density,"515.15 K, 4818 kPa, Fluid (supercritical or subcritical phases), x1 = 0.2",318.9 ± 2.7 kg/m3
same,mass density,"515.15 K, Liquid, x1 = 0.2",311.18 ± 1.9 kg/m3
same,mass density,"515.55 K, Liquid, x1 = 0.2",306.94 ± 1.9 kg/m3
same,mass density,"515.95 K, Liquid, x1 = 0.2",290.64 ± 1.8 kg/m3
same,mass density,"516.15 K, 4838 kPa, Fluid (supercritical or subcritical phases), x1 = 0.2",272.45 ± 2.2 kg/m3
same,mass density,"516.15 K, 4852 kPa, Fluid (supercritical or subcritical phases), x1 = 0.2",290.64 ± 2 kg/m3
same,mass density,"516.15 K, 4872 kPa, Fluid (supercritical or subcritical phases), x1 = 0.2",306.93 ± 1.6 kg/m3
same,mass density,"516.15 K, 4877 kPa, Fluid (supercritical or subcritical phases), x1 = 0.2",311.17 ± 1.6 kg/m3
same,mass density,"516.15 K, 4909 kPa, Fluid (supercritical or subcritical phases), x1 = 0.2",318.89 ± 2.4 kg/m3
same,mass density,"516.15 K, Liquid, x1 = 0.2",272.45 ± 1.6 kg/m3
same,mass density,"517.15 K, 4912 kPa, Fluid (supercritical or subcritical phases), x1 = 0.2",272.44 ± 2.1 kg/m3
same,mass density,"517.15 K, 4958 kPa, Fluid (supercritical or subcritical phases), x1 = 0.2",306.92 ± 2.5 kg/m3
